Here are results for 4 molecules from patent US11278530B2, “Polycyclic amides as muscarinic M1 receptor positive allosteric modulators” (SUVEN LIFE SCIENCES LIMITED, priority 2017, dated 2022).

In general, AUC(0-t) refers to exposure summed from dosing to a finite time, without extrapolation to infinity. A high value points to more exposure. As a reminder, the half-life is the time in which the quantity being followed falls by half. A lower half-life goes with rapid decline. As a reminder, the clearance is the volume of plasma or blood freed of the substance per unit of time. Usually Cmax stands for the peak of the concentration-time curve. By Tmax is commonly meant the time at which the peak concentration occurs. As usually defined, the EC50 is the concentration needed to bring the measured effect to its halfway point.

A short description of data set [1]: Rodent pharmacokinetic study. It counts as in vivo, Male Wistar rats. Particulars: male, Wistar, rat, plasma; for bioavailability: oral 3 mg/kg vs i.v. 1 mg/kg, read-out: F (bioavailability). On the procedure: Rodent Pharmacokinetic Study
Male Wistar rats (260±50 grams) were used as experimental animals. Animals were housed individually in polypropylene cage. Two days prior to study, male Wistar rats were anesthetized with isoflurane for surgical placement of jugular vein catheter. Rats were randomly divided for oral (3 mg/kg) and intravenous (i.v) (1 mg/kg) dosing (n=3/group) and fasted overnight before oral dosing (p.o.). However, rats allocated to intravenous (i.v.) dosing food and water was provided ad libitum.
At pre-determined point, blood was collected through jugular vein and replenished with an equivalent volume of normal saline. Collected blood was transferred into a labelled eppendorf tube containing 10 μL of heparin as an anticoagulant. Typically blood samples were collected at following time points: 0.08, 0.25, 0.5, 1, 2, 4, 6, 8, and 24 h post dose. Blood was centrifuged at 4000 rpm for 10 minutes. Plasma was separated and stored frozen at −80° C. until analysis. The concentrations of the test compounds were quantified in plasma by qualified LC-MS/MS method using suitable extraction technique. The test compounds were quantified in the calibration range around 1-1000 ng/mL in plasma. Study samples were analyzed using calibration samples in the batch and quality control samples spread across the batch.
Pharmacokinetic parameters Cmax, Tmax (h), AUCt, T1/2, clearance and bioavailability (F) were calculated by non-compartmental model using standard non-compartmental model by using Phoenix WinNonlin 6.0.2 or 6.0.3 version Software package.

Data set [2] has as its target T1, recombinant human Muscarinic M1 receptor (Homo sapiens, UniProt P11229).
T1 sequence (P11229 1-460): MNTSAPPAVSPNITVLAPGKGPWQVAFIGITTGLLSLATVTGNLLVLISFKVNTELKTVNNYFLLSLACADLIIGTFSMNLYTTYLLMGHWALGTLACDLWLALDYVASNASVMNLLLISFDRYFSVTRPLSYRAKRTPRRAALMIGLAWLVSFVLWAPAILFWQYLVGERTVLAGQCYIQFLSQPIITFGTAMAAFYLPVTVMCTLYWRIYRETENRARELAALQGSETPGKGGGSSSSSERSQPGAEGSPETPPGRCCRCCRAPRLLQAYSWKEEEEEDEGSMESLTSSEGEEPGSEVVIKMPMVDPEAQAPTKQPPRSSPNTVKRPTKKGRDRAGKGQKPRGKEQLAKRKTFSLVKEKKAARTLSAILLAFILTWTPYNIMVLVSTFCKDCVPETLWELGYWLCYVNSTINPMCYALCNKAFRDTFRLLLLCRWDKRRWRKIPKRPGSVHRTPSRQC
In words: Allosteric potency EC50 for Muscarinic M1 receptor, CHO pCRE-Luc reporter cell-based assay with EC20 of acetylcholine. The note with it: CHO cells, human M1, luciferase reporter, in presence of EC20 of acetylcholine, 4 h. How it is done:
Determination of allosteric potency EC50 values for Muscarinic M1 receptor:
A stable CHO cell line expressing recombinant human Muscarinic M1 receptor and pCRE-Luc reporter system was used for cell-based assay. The assay offers a non-radioactive based approach to determine binding of a compound to GPCRs. In this specific assay, the level of intracellular cyclic AMP which is modulated by activation or inhibition of the receptor is measured. The recombinant cells harbor luciferase reporter gene under the control of cAMP response element.
The above cells were grown in 96 well clear bottom white plates in Hams F12 medium containing 10% fetal bovine serum (FBS). Prior to the addition of compounds or standard agonist, cells were serum starved overnight. Increasing concentrations of test compounds were added along with EC20 of acetylcholine in OptiMEM medium to the cells. The incubation was continued at 37° C. in CO2 incubator for 4 h. Medium was removed and cells were washed with phosphate buffered saline. The cells were lysed and luciferase activity was measured in a Luminometer. Luminescence counts in each concentrations of test item were normalized to the acetylcholine induced maximum response and the data was analyzed using Graphpad software. EC50 values of the compounds were defined as the concentration required in stimulating the luciferase activity by 50% in presence of EC20 of acetylcholine.

The nature of data set [3]: Rodent brain penetration study. It counts as in vivo, Male Wistar rats. The note with it: male, Wistar, brain and plasma, po; rat, 3 mg/kg, p.o. @ 1.0 hr, brain-plasma ratio; read-out: Single dose Rat Brain Penetration (Cb/Cp). How it is done: Rodent Brain Penetration Study
Male Wistar rats (260±40 grams) were used as experimental animals. Three animals were housed in each cage. Animals were given water and food ad libitum throughout the experiment and maintained on a 12 h light/dark cycle.
Brain penetration was determined in discrete manner in rats. One day prior to dosing day, male Wistar rats were acclimatized and randomly grouped according to their weight. At each time point (0.5, 1 and 2 h) n=3 animals were used.
The test compounds were suitably preformulated and administered orally at (free base equivalent) 3 mg/kg. Blood samples were removed via cardiac puncture by using isoflurane anesthesia. The animals were sacrificed to collect brain tissue. Plasma was separated and brain samples were homogenized and stored frozen at −20° C. until analysis. The concentrations of the test compounds in plasma and brain were determined using LC-MS/MS method.
The test compounds were quantified in plasma and brain homogenate by qualified LC-MS/MS method using suitable extraction technique. The test compounds were quantified in the calibration range of 1-500 ng/mL in plasma and brain homogenate. Study samples were analyzed using calibration samples in the batch and quality control samples spread across the batch.

The subject of a further data set is Male Wistar rats. In words: Object recognition task model. It counts as in vivo. The note with it: rat, p.o.; for Exploration time mean ± S.E.M, Familiar object / Exploration time mean ± S.E.M, Novel object: choice trial 24 h after T1. How it is done:
Object Recognition Task Model
The cognition enhancing properties of compounds of this invention were estimated by using this model.
Male Wistar rats (8-10 weeks old) were used as experimental animals. Four animals were housed in each cage. Animals were kept on 20% food deprivation from a day prior to experimentation. Water was provided ad libitum throughout the experiment. Animals were maintained on a 12 h light/dark cycle in temperature and humidity controlled room. The experiment was carried out in circular arena made up of acrylic. Rats were habituated to individual arenas for up to 45 min in the absence of any objects on day 1.
One group of 12 rats received vehicle and another set of animals received compound of the formula (I), before the familiar (T1) and choice (T2) trials. During the familiarization phase, (T1), the rats were placed individually in the arena for 3 minutes, in which two identical objects (a1 and a2) were positioned 10 cm from the wall. 24 h after T1, trial for long-term memory test was performed. The same rats were placed in the same arena as they were placed in T1 trial. During the choice phase (T2) rats were allowed to explore the arena for 3 minutes in presence of a copy of familiar object (a3) and one novel object (b). During the T1 and T2 trial, explorations of each object (defined as sniffing, licking, chewing or having moving vibrissae whilst directing the nose towards the object at a distance of less than 1 cm) were recorded using stopwatch.
T1 is the total time spent exploring the familiar objects (a1+a2).
T2 is the total time spent exploring the familiar object and novel object (a3+b).
The object recognition test was performed as described by Ennaceur, A., Delacour, J., 1988, A new one-trial test for neurobiological studies of memory in rats—Behavioural data, Behav. Brain Res., 31, 47-59.

For data set [4], the system named is hippocampal θ rhythm, anesthetized male Wistar rats. In words: Theta modulation in dorsal hippocampus of anesthetized rats in combination with donepezil. It counts as in vivo.
Description: Male Wistar rats (240-320 g) were anesthetized by intraperitoneal administration of urethane (1.2 to 1.5 g/kg) for implantation of a catheter in the left femoral vein. The animal was placed in a stereotaxic frame for implanting an electrode (stainless steel wire, Plastics One) into the dorsal hippocampus (AP: −3.8 mm; ML: +2.2 mm; DV: −2.5 mm; Paxinos and Watson, 2004). Bipolar stimulating electrode (untwisted stainless steel wires, separated by 0.75-1.0 mm at their tips, Plastics One) was implanted in the Nucleus Pontis Oralis (NPO; AP: −7.8 mm; ML: 1.8 mm; DV: −6.0 mm; Paxinos and Watson, 2004). Additionally one electrode was implanted into the cerebellum which served as a reference. Hippocampal θ rhythm was evoked via a 6-s electrical stimulation train (20-160 PA, 0.3-ms pulse duration, 250 Hz) delivered to the NPO at a rate of 0.01 trains/s with a Grass S88 stimulator and PSIU6 stimulus isolation unit (Grass Medical Instruments, Quincy, Mass.). EEG was recorded at a rate of 1000 Hz using Ponemah (Version 5.2) software and stored for off-line analysis using NeuroScore (Version 3.0). Baseline amplitude level was achieved by using the current required to elicit 0 rhythm to 50% of the maximal amplitude under control conditions.
Power in the θ rhythm frequency in the stimulation period during the 30 min baseline period was calculated and the % changes in these measures post treatment were calculated. […] Statistical significance was considered at a p value less than 0.05.

In data set [1] (iv, i.v. 1 mg/kg), `Cc1c(Cc2ccc(-c3cnn(C)c3)cc2)cc(C(=O)N[C@H]2CCCC[C@@H]2O)c2ncccc12` [Example 15, N-(cis-1S,2S-2-Hydroxycyclohexyl)-6-[4-(1-methyl-1H-pyrazol-4-yl)-benzyl]-5-methylquinoline-8-carboxamide] had an AUC(0-t) of 6.86 ± 1.81 µg·h/mL, a half-life of 3.1 ± 0.3 h and a clearance of 0.15 ± 0.036 L/h/kg. The bioavailability in data set [1] was determined as 40 ± 11%. Besides, in data set [1] (oral 3 mg/kg), the AUC(0-t) amounted to 8.19 ± 2.18 µg·h/mL, the peak concentration (Cmax) stood at 1.54 ± 0.397 µg/mL, the time to peak (Tmax) came to 2 h and the half-life was 3.7 ± 0.3 h. For the same molecule, in data set [2], the concentration giving a half-maximal response (EC50) is 0.197 µM. Also, the Kp at 1 h in data set [3] amounted to 0.78 ± 0.22. For the same molecule, in the data set on Male Wistar rats (1 mg/kg), the Inference entry is listed as “Active”; the “Exploration time mean ± S.E.M, Familiar object” value was found to be 12.93 ± 1.83 s; the “Exploration time mean ± S.E.M, Novel object” value came out at 20.42 ± 3.42 s.
In data set [1] (iv, i.v. 1 mg/kg), `Cc1c(Cc2ccc(-n3cccn3)cc2)cc(C(=O)N[C@H]2CCCC[C@@H]2O)c2c1NCCO2` [Example 17, N-(cis-1S,2S-2-Hydroxycyclohexyl)-6-(4-pyrazol-1-yl-benzyl)-5-methyl-3,4-dihydro-2H-benzo[1,4]oxazine-8-carboxamide] showed an AUC(0-t) of 0.635 ± 0.07 µg·h/mL, a half-life of 1.3 ± 0.2 h and a clearance of 1.56 ± 0.18 L/h/kg. In addition, in data set [1], the bioavailability amounted to 37 ± 6%. For the same molecule, in data set [1] (oral 3 mg/kg), the AUC(0-t) is 0.705 ± 0.118 µg·h/mL, the concentration peaked (Cmax) at 0.288 ± 0.0265 µg/mL, the Tmax came to 1 h and the half-life is 1.3 ± 0.1 h. Moreover, the EC50 in data set [2] amounted to 1.12 µM. In data set [3], the Kp at 1 h amounted to 0.32 ± 0.06.
For the molecule `Cc1c(Cc2ccccc2)cc(C(=O)N[C@H]2CCCC[C@@H]2O)c2ncccc12` [Example 14, N-(cis-1S,2S-2-Hydroxycyclohexyl)-6-benzyl-5-methylquinoline-8-carboxamide], in data set [1] (iv, i.v. 1 mg/kg), the area under the curve AUC(0-t) is 0.346 ± 0.025 µg·h/mL, the half-life was 0.8 ± 0.1 h and the clearance stood at 2.88 ± 0.204 L/h/kg. The bioavailability in data set [1] came out at 13 ± 2.7%. Besides, in data set [1] (oral 3 mg/kg), the AUC(0-t) came out at 0.137 ± 0.028 µg·h/mL, the highest level (Cmax) was 0.07 ± 0.023 µg/mL, the Tmax is 0.5 h and the half-life is 1.9 ± 0.1 h. Further, the 50% effective concentration (EC50) in data set [2] was determined as 0.555 µM. Moreover, the Kp at 1 h in data set [3] stood at 1.27 ± 0.07. In the data set on Male Wistar rats (3 mg/kg), the Inference result is recorded as “Active”; the “Exploration time mean ± S.E.M, Familiar object” value worked out at 8.35 ± 1.98 s; the “Exploration time mean ± S.E.M, Novel object” value came to 15.54 ± 3.58 s.
In the case of `Cc1c(Cc2ccc(-c3cnn(C)c3)cc2F)cc(C(=O)N[C@H]2CCCC[C@@H]2O)c2ncccc12` [Example 11, N-(cis-1S,2S-2-Hydroxycyclohexyl)-6-[2-fluoro-4-(1-methyl-1H-pyrazol-4-yl)-benzyl]-5-methylquinoline-8-carboxamide], in data set [1] (iv, i.v. 1 mg/kg), the exposure AUC(0-t) was 12.8 ± 2.15 µg·h/mL, the half-life is 3.9 ± 0.2 h and the clearance is 0.078 ± 0.012 L/h/kg. Moreover, the bioavailability in data set [1] is 105 ± 25%. Moreover, in data set [1] (oral 3 mg/kg), the AUC(0-t) was found to be 40.3 ± 9.42 µg·h/mL, the Cmax turned out to be 9.69 ± 1.42 µg/mL, the time of peak concentration (Tmax) is 1 to 2 h and the half-life is 4.8 ± 1.6 h. Also, in data set [4] (Example 11 (1 mg/kg, i.v.) and donepezil (0.3 mg/kg, i.v.) vs donepezil alone), the “Mean area under the curve values (AUC) of θ power change compared with donepezil alone” value is given as “significantly higher compared to donepezil alone”. The “effect on θ power of combination treatment compared with donepezil alone” value in data set [4] (Example 11 (1 mg/kg, i.v.) in combination with donepezil (0.3 mg/kg, i.v.) vs donepezil alone) is “significantly higher than the donepezil alone”. For the same molecule, the θ power levels result in data set [4] (Example 11 (1 mg/kg, i.v.) in combination with donepezil (0.3 mg/kg, i.v.), anesthetized rat) was “significant increase”. For the same molecule, the concentration for a half-maximal effect (EC50) in data set [2] came out at 0.1 µM. For the same molecule, the Kp at 1 h in data set [3] came to 0.14 ± 0.01. Moreover, in the data set on Male Wistar rats (0.3 mg/kg), the Inference entry is listed as “Active”; the “Exploration time mean ± S.E.M, Familiar object” value was 12.20 ± 1.89 s; the “Exploration time mean ± S.E.M, Novel object” value worked out at 17.33 ± 1.39 s.
